Experiments:
Assay type in all cases: cell-based
[1] = system: Huh-7; test: Inhibition of HCV genotype-1a NS5A infected in human HuH7 cells by luciferase reporter gene assay; details: Hepatitis C virus subtype 1a
[2] = system: T1, Nonstructural protein 5A (Hepatitis C virus), Q5L478 [Y93H]; test: Inhibition of HCV genotype-1a NS5A Y93H mutant infected in human HuH7 cells by luciferase reporter gene assay; details: Hepatitis C virus subtype 1a; Huh-7
T1 sequence (whole entry): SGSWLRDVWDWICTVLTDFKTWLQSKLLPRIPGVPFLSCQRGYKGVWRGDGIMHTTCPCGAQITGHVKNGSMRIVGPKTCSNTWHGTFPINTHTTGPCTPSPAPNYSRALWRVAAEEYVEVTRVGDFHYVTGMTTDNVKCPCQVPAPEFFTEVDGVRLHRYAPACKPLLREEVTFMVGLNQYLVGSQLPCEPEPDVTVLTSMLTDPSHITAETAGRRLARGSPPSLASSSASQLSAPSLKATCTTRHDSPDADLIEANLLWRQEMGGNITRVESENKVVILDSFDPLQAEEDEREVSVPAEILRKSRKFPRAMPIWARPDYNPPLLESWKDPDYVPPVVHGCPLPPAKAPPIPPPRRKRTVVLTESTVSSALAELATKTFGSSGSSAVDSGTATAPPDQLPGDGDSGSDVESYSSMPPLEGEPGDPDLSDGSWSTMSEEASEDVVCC

[3] = system: Huh-7; test: Inhibition of HCV genotype-2b NS5A harboring methionine at position 31 infected in human HuH7 cells by luciferase reporter gene assay; details: Hepatitis C virus subtype 2b
[4] = system: Nonstructural protein 5A (Hepatitis C virus), Q5L478 [UNDEFINED MUTATION]; test: Inhibition of HCV genotype-1a NS5A L31V mutant infected in human HuH7 cells by luciferase reporter gene assay; details: Hepatitis C virus subtype 1a; Huh-7
[5] = system: Huh-7; test: Inhibition of HCV genotype-3a NS5A infected in human HuH7 cells by luciferase reporter gene assay; details: Hepatitis C virus subtype 3a
[6] = system: Huh-7; test: Inhibition of HCV genotype-4a NS5A infected in human HuH7 cells by luciferase reporter gene assay; details: Hepatitis C virus subtype 4a

Row | Structure (SMILES) | EC90 [1] | EC90 [2] | EC90 [3] | EC90 [4] | EC90 [5] | EC90 [6]
1 | COC(=O)N[C@H](C(=O)N1CCC[C@H]1c1ncc(-c2cc(F)c3c(c2)OC(c2nc4ccccc4o2)n2c-3cc3cc(-c4cnc([C@@H]5CCCN5C(=O)[C@@H](NC(=O)OC)C(C)C)[nH]4)ccc32)[nH]1)C(C)C (stereo partly specified) | 0.004 nM | 0.32 nM | 1 nM | 0.042 nM | 0.025 nM | 0.008 nM
2 | COC(=O)N[C@H](C(=O)N1CCC[C@H]1c1ncc(-c2cc(F)c3c(c2)OC(c2cnc(C4CC4)o2)n2c-3cc3cc(-c4cnc([C@@H]5CCCN5C(=O)[C@@H](NC(=O)OC)C(C)C)[nH]4)ccc32)[nH]1)C(C)C (stereo partly specified) | 0.007 nM | 1.8 nM | 1.1 nM | 0.46 nM | 0.18 nM | 0.03 nM
3 | COC(=O)N[C@H](C(=O)N1CCC[C@H]1c1ncc(-c2cc(F)c3c(c2)OC(c2sc(C4CC4)cc2F)n2c-3cc3cc(-c4cnc([C@@H]5CCCN5C(=O)[C@@H](NC(=O)OC)C(C)C)[nH]4)ccc32)[nH]1)C(C)C (stereo partly specified) | 0.002 nM | 0.74 nM | 0.68 nM |  | 0.008 nM | 0.003 nM
4 | COC(=O)N[C@H](C(=O)N1CCC[C@H]1c1ncc(-c2cc(F)c3c(c2)OC(c2cnc(C4(C)CC4)s2)n2c-3cc3cc(-c4cnc([C@@H]5C[C@H]6C[C@H]6N5C(=O)[C@@H](NC(=O)OC)C(C)C)[nH]4)ccc32)[nH]1)C(C)C (stereo partly specified) | 0.005 nM | 0.02 nM | 0.18 nM | 0.007 nM | 0.009 nM | 0.005 nM
5 | COC(=O)N[C@H](C(=O)N1CCC[C@H]1c1ncc(-c2cc(F)c3c(c2)OC(c2ccc(C(=O)N(C)C)s2)n2c-3cc3cc(-c4cnc([C@@H]5CCCN5C(=O)[C@@H](NC(=O)OC)C(C)C)[nH]4)ccc32)[nH]1)C(C)C (stereo partly specified) | 0.014 nM | 0.47 nM | 0.45 nM | 0.035 nM | 0.12 nM | 0.024 nM
6 | CCc1nnc(C2Oc3cc(-c4cnc([C@@H]5CCCN5C(=O)[C@@H](NC(=O)OC)C(C)C)[nH]4)cc(F)c3-c3cc4cc(-c5cnc([C@@H]6CCCN6C(=O)[C@@H](NC(=O)OC)C(C)C)[nH]5)ccc4n32)s1 (stereo partly specified) | 0.016 nM | 7.4 nM | > 1.7 nM |  | 0.18 nM | 
7 | COC(=O)N[C@H](C(=O)N1CCC[C@H]1c1ncc(-c2cc(F)c3c(c2)OC(c2ccc(C4CC4(F)F)s2)n2c-3cc3cc(-c4cnc([C@@H]5CCCN5C(=O)[C@@H](NC(=O)OC)C(C)C)[nH]4)ccc32)[nH]1)C(C)C (stereo partly specified) | 0.002 nM | 0.084 nM | 0.43 nM | 0.02 nM | 0.007 nM | 0.003 nM
8 | COC(=O)N[C@H](C(=O)N1CCC[C@H]1c1ncc(-c2cc(F)c3c(c2)OC(c2ccsc2)n2c-3cc3cc(-c4cnc([C@@H]5CCCN5C(=O)[C@@H](NC(=O)OC)C(C)C)[nH]4)ccc32)[nH]1)C(C)C (stereo partly specified) | 0.002 nM | 0.59 nM | 3.7 nM | 0.13 nM | 0.013 nM | 0.01 nM
9 | CCCc1ccc(C2Oc3cc(-c4cnc([C@@H]5CCCN5C(=O)[C@@H](NC(=O)OC)C(C)C)[nH]4)cc(F)c3-c3cc4cc(-c5cnc([C@@H]6CCCN6C(=O)[C@@H](NC(=O)OC)C(C)C)[nH]5)ccc4n32)s1 (stereo partly specified) | 0.005 nM | 0.069 nM | 0.44 nM | 0.013 nM | 0.009 nM | 0.005 nM
10 | COC(=O)N[C@H](C(=O)N1CCC[C@H]1c1ncc(-c2cc(F)c3c(c2)OC(c2cncs2)n2c-3cc3cc(-c4cnc([C@@H]5CCCN5C(=O)[C@@H](NC(=O)OC)C(C)C)[nH]4)ccc32)[nH]1)C(C)C (stereo partly specified) | 0.006 nM | 1 nM | 2.47 nM |  | 0.079 nM | 
11 | COCc1ncc(C2Oc3cc(-c4cnc([C@@H]5CCCN5C(=O)[C@@H](NC(=O)OC)C(C)C)[nH]4)cc(F)c3-c3cc4cc(-c5cnc([C@@H]6CCCN6C(=O)[C@@H](NC(=O)OC)C(C)C)[nH]5)ccc4n32)s1 (stereo partly specified) | 0.002 nM | 0.04 nM | 0.12 nM | 0.017 nM | 0.007 nM | 0.003 nM
12 | COC(=O)N[C@H](C(=O)N1CCC[C@H]1c1ncc(-c2cc(F)c3c(c2)OC(c2cc4c(s2)CCC4)n2c-3cc3cc(-c4cnc([C@@H]5CCCN5C(=O)[C@@H](NC(=O)OC)C(C)C)[nH]4)ccc32)[nH]1)C(C)C (stereo partly specified) | 0.003 nM | 0.26 nM | 0.24 nM | 0.003 nM | 0.007 nM | 0.005 nM
13 | COC(=O)N[C@H](C(=O)N1CCC[C@H]1c1ncc(-c2cc(F)c3c(c2)OC(c2ccc(C(C)C)s2)n2c-3cc3cc(-c4cnc([C@@H]5CCCN5C(=O)[C@@H](NC(=O)OC)C(C)C)[nH]4)ccc32)[nH]1)C(C)C (stereo partly specified) | 0.002 nM | 0.13 nM | 0.52 nM | 0.01 nM | 0.001 nM | 0.003 nM
14 | COC(=O)N[C@H](C(=O)N1CCC[C@H]1c1ncc(-c2cc(F)c3c(c2)OC(c2ccc(CC4CC4)s2)n2c-3cc3cc(-c4cnc([C@@H]5CCCN5C(=O)[C@@H](NC(=O)OC)C(C)C)[nH]4)ccc32)[nH]1)C(C)C (stereo partly specified) | 0.003 nM | 0.18 nM |  | 0.011 nM | 0.004 nM | 0.003 nM
15 | COC(=O)N[C@H](C(=O)N1CCC[C@H]1c1ncc(-c2cc(F)c3c(c2)OC(c2cc(C)c(C4CC4)s2)n2c-3cc3cc(-c4cnc([C@@H]5CCCN5C(=O)[C@@H](NC(=O)OC)C(C)C)[nH]4)ccc32)[nH]1)C(C)C (stereo partly specified) | 0.002 nM | 1.7 nM | 0.88 nM | 0.009 nM | 0.004 nM | 0.002 nM
16 | COC(=O)N[C@H](C(=O)N1CCC[C@H]1c1ncc(-c2cc(F)c3c(c2)OC(c2cc(C4CC4)cs2)n2c-3cc3cc(-c4cnc([C@@H]5CCCN5C(=O)[C@@H](NC(=O)OC)C(C)C)[nH]4)ccc32)[nH]1)C(C)C (stereo partly specified) | < 0.002 nM | 1.74 nM | 1.6 nM | 0.028 nM | 0.008 nM | 
17 | COC(=O)N[C@H](C(=O)N1CCC[C@H]1c1ncc(-c2cc(F)c3c(c2)OC(c2cnns2)n2c-3cc3cc(-c4cnc([C@@H]5CCCN5C(=O)[C@@H](NC(=O)OC)C(C)C)[nH]4)ccc32)[nH]1)C(C)C (stereo partly specified) | 0.003 nM | 0.36 nM | 0.72 nM | 0.14 nM | 0.047 nM | 0.012 nM
18 | COC(=O)N[C@H](C(=O)N1CCC[C@H]1c1ncc(-c2cc(F)c3c(c2)OC(c2cnc(C(F)F)s2)n2c-3cc3cc(-c4cnc([C@@H]5CCCN5C(=O)[C@@H](NC(=O)OC)C(C)C)[nH]4)ccc32)[nH]1)C(C)C (stereo partly specified) | 0.002 nM | 0.056 nM | 0.069 nM | 0.003 nM | 0.004 nM | 0.002 nM
19 | CCc1ncc(C2Oc3cc(-c4cnc([C@@H]5CCCN5C(=O)[C@@H](NC(=O)OC)C(C)C)[nH]4)cc(F)c3-c3cc4cc(-c5cnc([C@@H]6CCCN6C(=O)[C@@H](NC(=O)OC)C(C)C)[nH]5)ccc4n32)s1 (stereo partly specified) | 0.004 nM | 0.14 nM | 0.097 nM | 0.048 nM | 0.009 nM | 0.011 nM
20 | COC(=O)N[C@H](C(=O)N1CCC[C@H]1c1ncc(-c2cc(F)c3c(c2)OC(c2cc4c(s2)CCCC4)n2c-3cc3cc(-c4cnc([C@@H]5CCCN5C(=O)[C@@H](NC(=O)OC)C(C)C)[nH]4)ccc32)[nH]1)C(C)C (stereo partly specified) | 0.005 nM | 0.31 nM | 0.61 nM | 0.027 nM | 0.02 nM | 0.008 nM
21 | COC(=O)N[C@H](C(=O)N1CCC[C@H]1c1ncc(-c2cc(F)c3c(c2)OC(c2ncc(C4CC4)s2)n2c-3cc3cc(-c4cnc([C@@H]5CCCN5C(=O)[C@@H](NC(=O)OC)C(C)C)[nH]4)ccc32)[nH]1)C(C)C (stereo partly specified) | 0.005 nM | 1 nM | 1.63 nM | 0.017 nM |  | 
22 | COC(=O)N[C@H](C(=O)N1CCC[C@H]1c1ncc(-c2cc(F)c3c(c2)OC(c2cc(F)c(C4CC4)s2)n2c-3cc3cc(-c4cnc([C@@H]5CCCN5C(=O)[C@@H](NC(=O)OC)C(C)C)[nH]4)ccc32)[nH]1)C(C)C (stereo partly specified) | 0.005 nM | 0.17 nM | 0.68 nM | 0.029 nM | 0.012 nM | 0.014 nM
23 | COC(=O)N[C@H](C(=O)N1CCC[C@H]1c1ncc(-c2cc(F)c3c(c2)OC(c2cnco2)n2c-3cc3cc(-c4cnc([C@@H]5CCCN5C(=O)[C@@H](NC(=O)OC)C(C)C)[nH]4)ccc32)[nH]1)C(C)C (stereo partly specified) | 0.06 nM | 8.5 nM | 14.1 nM |  | 0.25 nM | 
24 | COC(=O)N[C@H](C(=O)N1CCC[C@H]1c1ncc(-c2cc(F)c3c(c2)OC(c2nc(C4CC4)cs2)n2c-3cc3cc(-c4cnc([C@@H]5CCCN5C(=O)[C@@H](NC(=O)OC)C(C)C)[nH]4)ccc32)[nH]1)C(C)C (stereo partly specified) | 0.002 nM | 2.6 nM | 4.6 nM |  | 0.073 nM | 
25 | COC(=O)N[C@H](C(=O)N1CCC[C@H]1c1ncc(-c2ccc3c(c2)cc2n3C(c3cc4ccccc4s3)Oc3cc(-c4cnc([C@@H]5C[C@@H](F)CN5C(=O)[C@@H](NC(=O)OC)C(C)C)[nH]4)ccc3-2)[nH]1)C(C)C (stereo partly specified) | 0.01 nM | 1.1 nM | 3.4 nM | 0.53 nM | 0.19 nM | 
